{
  "source": "patent US4604237A",
  "about": "“Des-21-threonine-calcitonin” (Armour Pharmaceutical Company, priority 1984, dated 1986)",
  "key": {"[1]": {"system": "serum calcium concentration", "experiment": "Biological assay of calcitonin analogs in vivo: reduction of serum calcium, 2×2 parallel line assay against synthetic salmon calcitonin standard", "design": "species or system Rats", "details": "independently determined content of the standard", "method": "The biological potency of des-21-threonine-salmon calcitonin was determined by comparing the reduction of serum calcium concentration which followed administration by graded doses of des-Thr^21 -SCT and synthetic salmon calcitonin standard. Rats were divided into four groups of seven animals, and each group was assigned at random to a dose of standard or test solution. Low and high doses were chosen from the linear portion of the dose-response curve. For the salmon calcitonin standard, the values were 0.7 and 2.1 ng. peptide/100 g. body weight (BW). This dose approximates 3 and 9 MU/100 g. BW. Peptides were given by subcutaneous injection (0.2 ml/100 g. BW) and blood was withdrawn 1 hour later for serum calcium determination. Sera are processed and analyzed within two hours of collection. […]. Results were analyzed by a 2×2 parallel line assay [Gaddum, J. H., J. Pharm. Pharmacol., 6, 345 (1953)]. The standard salmon calcitonin used was independently determined to contain greater than 4,000 IU/mg. des-Thr^21 -SCT assayed at 5355 IU/mg."}, "[2]": {"details": "literature values; cited from earlier work"}},
  "data": [
    {"molecule": "CC(C)C[C@H](NC(=O)[C@H](CCCCN)NC(=O)CNC(=O)[C@H](CC(C)C)NC(=O)[C@@H](NC(=O)[C@@H]1CSSC[C@H](N)C(=O)N[C@@H](CO)C(=O)N[C@@H](CC(N)=O)C(=O)N[C@@H](CC(C)C)C(=O)N[C@@H](CO)C(=O)N[C@@H]([C@@H](C)O)C(=O)N1)C(C)C)C(=O)N[C@@H](CO)C(=O)N[C@@H](CCC(N)=O)C(=O)N[C@@H](CCC(=O)O)C(=O)N[C@@H](CC(C)C)C(=O)N[C@@H](Cc1c[nH]cn1)C(=O)N[C@@H](CCCCN)C(=O)N[C@@H](CC(C)C)C(=O)N[C@@H](CCC(N)=O)C(=O)N[C@H](C(=O)N[C@@H](Cc1ccc(O)cc1)C(=O)N1CCC[C@H]1C(=O)N[C@@H](CCCNC(=N)N)C(=O)N[C@H](C(=O)N[C@@H](CC(N)=O)C(=O)N[C@H](C(=O)NCC(=O)N[C@@H](CO)C(=O)NCC(=O)N[C@H](C(=O)N1CCC[C@H]1C(N)=O)[C@@H](C)O)[C@@H](C)O)[C@@H](C)O)[C@@H](C)O", "note": "[standard salmon calcitonin, Salmon calcitonin]", "values": [
      {"measurement": "potency of the standard salmon calcitonin used", "setting": "[1]", "result": "greater than 4,000 IU/mg"}
    ]},
    {"molecule": "(1,7-α-L-aminosuberic acid)eel calcitonin", "values": [
      {"measurement": "hypocalcemic potency", "setting": "[2]", "result": "about 3400 IU/mg."}
    ]},
    {"molecule": "eel calcitonin [synthetic eel calcitonin]", "values": [
      {"measurement": "hypocalcemic potency", "setting": "[2]", "result": "around 4300 IU/mg."}
    ]}
  ]
}
